For 18 molecules, IC50 and inhibition results are on record in US10858362B2, “Imidazopyrazinones as PDE1 inhibitors” (H. Lundbeck A/S, priority 2015, dated 2020).

A word on the IC50: it is the point on the concentration scale where inhibition reaches its midpoint. A word on the inhibition: it is the relative decrease from the control value, in per cent.

Holding throughout (type): biochemical
The target of one assay is PDE1A (Homo sapiens (Human), UniProt P54750). The assay is described as follows: PDE1 inhibition assay, PDE1A. To be noted: for IC50: 15 nM tritium labelled cAMP; for inhibition at 10 µM: read-out: PDE1A, % inhibition (at 10 μM). The method, then: Reactions were initiated by addition of the cyclic nucleotide substrate, and reactions were allowed to proceed for 1 h at room temperature before being terminated through mixing with 20 μL (0.2 mg) yttrium silicate SPA beads (PerkinElmer).

Another assay has as its target PDE9 (Homo sapiens (Human), UniProt O76083). The assay is described as follows: PDE9 inhibition assay. In short, it runs like this: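 SPA radiometric read-out: after a 1 hr reaction, yttrium silicate beads were added, allowed to settle 1 hr in the dark and counted. Substrate 10 nM ^3H-cAMP, PDE9 amount giving 20-25% conversion, buffer 50 mM HEPES pH 7.6/10 mM MgCl2/0.02% Tween20, varying inhibitor amounts.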

The target of a further assay is PDE1C (Homo sapiens (Human), UniProt Q14123). The experiment in a line: PDE1 inhibition assay, PDE1C. The note with it: 15 nM tritium labelled cAMP. The method, then: (§1) Reactions were initiated by addition of the cyclic nucleotide substrate, and reactions were allowed to proceed for 1 h at room temperature before being terminated through mixing with 20 μL (0.2 mg) yttrium silicate SPA beads (PerkinElmer). The beads were allowed to settle for 1 h in the dark before the plates were counted in a Wallac 1450 Microbeta counter.

The target of another assay is PDE1B (Homo sapiens (Human), UniProt Q01064). The experiment in a line: PDE1 inhibition assay, PDE1B. To be noted: for IC50: 15 nM tritium labelled cAMP. How it is done: as §1

The structures appear in SMILES notation.

PDE1C, sequence (Q14123 whole entry): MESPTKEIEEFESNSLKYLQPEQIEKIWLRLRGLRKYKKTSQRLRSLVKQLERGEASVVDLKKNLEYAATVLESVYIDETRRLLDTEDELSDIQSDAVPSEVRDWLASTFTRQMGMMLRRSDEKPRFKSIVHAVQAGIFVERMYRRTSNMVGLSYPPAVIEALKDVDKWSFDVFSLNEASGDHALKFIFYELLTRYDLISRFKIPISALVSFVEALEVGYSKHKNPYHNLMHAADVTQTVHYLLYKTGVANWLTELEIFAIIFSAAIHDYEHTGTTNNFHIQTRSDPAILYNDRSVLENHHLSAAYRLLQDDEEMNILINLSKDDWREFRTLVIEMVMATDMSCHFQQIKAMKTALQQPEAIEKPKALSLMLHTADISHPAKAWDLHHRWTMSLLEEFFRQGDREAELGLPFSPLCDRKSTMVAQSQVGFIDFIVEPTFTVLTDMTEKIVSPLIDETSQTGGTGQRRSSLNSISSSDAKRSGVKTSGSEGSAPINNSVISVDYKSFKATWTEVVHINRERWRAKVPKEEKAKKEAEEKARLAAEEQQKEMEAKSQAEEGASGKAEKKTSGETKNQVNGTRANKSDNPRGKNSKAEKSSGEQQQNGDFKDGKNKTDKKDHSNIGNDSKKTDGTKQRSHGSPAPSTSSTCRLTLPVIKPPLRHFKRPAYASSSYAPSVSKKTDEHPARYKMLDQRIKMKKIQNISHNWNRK
PDE9, sequence (O76083 whole entry): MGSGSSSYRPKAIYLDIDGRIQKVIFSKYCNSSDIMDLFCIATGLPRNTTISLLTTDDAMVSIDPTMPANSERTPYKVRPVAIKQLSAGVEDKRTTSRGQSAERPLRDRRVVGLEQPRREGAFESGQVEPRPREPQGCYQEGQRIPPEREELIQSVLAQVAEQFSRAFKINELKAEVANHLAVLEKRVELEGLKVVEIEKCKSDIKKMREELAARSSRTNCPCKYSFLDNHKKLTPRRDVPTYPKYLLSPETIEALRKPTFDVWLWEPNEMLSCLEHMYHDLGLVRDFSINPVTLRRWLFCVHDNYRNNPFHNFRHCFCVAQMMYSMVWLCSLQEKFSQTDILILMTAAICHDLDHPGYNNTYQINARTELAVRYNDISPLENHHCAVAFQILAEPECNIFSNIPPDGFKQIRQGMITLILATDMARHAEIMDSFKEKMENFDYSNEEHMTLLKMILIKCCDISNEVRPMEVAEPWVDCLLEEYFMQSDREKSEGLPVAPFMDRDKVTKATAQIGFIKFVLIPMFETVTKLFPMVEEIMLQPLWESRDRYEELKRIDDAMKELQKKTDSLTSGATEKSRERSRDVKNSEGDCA
PDE1B, sequence (Q01064 whole entry): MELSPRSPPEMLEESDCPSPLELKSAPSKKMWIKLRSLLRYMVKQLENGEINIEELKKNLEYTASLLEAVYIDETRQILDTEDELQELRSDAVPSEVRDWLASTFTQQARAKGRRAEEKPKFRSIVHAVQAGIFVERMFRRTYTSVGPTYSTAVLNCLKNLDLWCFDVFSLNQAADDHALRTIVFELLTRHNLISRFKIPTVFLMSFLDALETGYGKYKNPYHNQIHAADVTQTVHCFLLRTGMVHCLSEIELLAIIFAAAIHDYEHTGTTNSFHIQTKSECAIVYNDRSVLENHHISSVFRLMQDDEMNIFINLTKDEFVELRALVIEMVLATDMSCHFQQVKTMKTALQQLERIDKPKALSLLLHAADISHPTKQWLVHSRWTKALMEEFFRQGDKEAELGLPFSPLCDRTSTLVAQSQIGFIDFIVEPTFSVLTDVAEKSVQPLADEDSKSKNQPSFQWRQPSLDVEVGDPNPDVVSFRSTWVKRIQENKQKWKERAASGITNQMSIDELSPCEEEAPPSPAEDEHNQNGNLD
PDE1A, sequence (P54750 whole entry): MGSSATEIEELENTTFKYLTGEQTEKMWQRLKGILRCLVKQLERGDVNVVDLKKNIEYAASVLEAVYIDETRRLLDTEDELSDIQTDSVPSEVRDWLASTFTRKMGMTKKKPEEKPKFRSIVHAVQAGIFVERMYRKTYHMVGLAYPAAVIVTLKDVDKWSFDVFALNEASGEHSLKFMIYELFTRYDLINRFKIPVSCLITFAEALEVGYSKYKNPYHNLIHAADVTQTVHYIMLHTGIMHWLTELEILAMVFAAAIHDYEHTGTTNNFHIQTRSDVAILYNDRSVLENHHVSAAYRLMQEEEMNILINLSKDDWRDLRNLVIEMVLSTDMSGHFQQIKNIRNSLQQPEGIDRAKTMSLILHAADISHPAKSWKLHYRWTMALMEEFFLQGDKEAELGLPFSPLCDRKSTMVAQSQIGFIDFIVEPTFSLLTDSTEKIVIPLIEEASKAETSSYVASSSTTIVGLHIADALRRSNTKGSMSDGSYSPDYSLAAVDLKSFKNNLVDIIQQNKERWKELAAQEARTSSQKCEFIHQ

In the case of `Cc1cn2c(C3CCOCC3)ncc2c(=O)n1CC1CCCC1` [Example 63, 7-(cyclopentylmethyl)-6-methyl-3-(tetrahydro-2H-pyran-4-yl)imidazo[1,5-a]pyrazin-8(7H)-one], the IC50 was 183 nM at PDE1A, 17 nM at PDE1C and 82 nM against PDE1B. Besides, the inhibition at 10 µM against PDE9 was -3%.
In the same order, the values of `Cc1cn2c(C3CCOCC3)ncc2c(=O)n1Cc1ccccc1C#N` [Example 64, 2-((6-methyl-8-oxo-3-(tetrahydro-2H-pyran-4-yl)imidazo[1,5-a]pyrazin-7(8H)-yl)methyl)benzonitrile] are 624 nM, 103 nM, 528 nM and 11%.
In the same order, the values of `Cc1cn2c(C3CCOCC3)ncc2c(=O)n1CC1CCCCCC1` [Example 65, 7-(cycloheptylmethyl)-6-methyl-3-(tetrahydro-2H-pyran-4-yl)imidazo[1,5-a]pyrazin-8(7H)-one] are 10 nM, 5 nM, 6 nM and 11%.
In the same order, the values of `CO[C@H]1CC[C@@H](Cn2c(C)cn3c(C4CCOCC4)ncc3c2=O)CC1` [Example 67, 7-(((cis)-4-methoxycyclohexyl)methyl)-6-methyl-3-(tetrahydro-2H-pyran-4-yl)imidazo[1,5-a]pyrazin-8(7H)-one] are 234 nM, 307 nM, 87 nM and 10%.
With `CO[C@H]1CC[C@H](Cn2c(C)cn3c(C4CCOCC4)ncc3c2=O)CC1` [Example 68, 7-(((trans)-4-methoxycyclohexyl)methyl)-6-methyl-3-(tetrahydro-2H-pyran-4-yl)imidazo[1,5-a]pyrazin-8(7H)-one], the IC50 against PDE1A amounted to 323 nM; at PDE1C, 1860 nM; at PDE1B, 127 nM. Further, the inhibition at 10 µM against PDE9 is 5%.
In the same order, the values of `COc1ccc(Cn2c(C)cn3c(C4CCOCC4C)ncc3c2=O)cc1` (stereo not drawn) [Example 69, 7-(4-methoxybenzyl)-6-methyl-3-(3-methyltetrahydro-2H-pyran-4-yl)imidazo[1,5-a]pyrazin-8(7H)-one] are 13 nM, 24 nM, 8 nM and 2%.
On the same counts, the results for `COc1ccc(Cn2c(C)cn3c([C@@]4(C)C[C@@H]5CC[C@H]4O5)ncc3c2=O)cc1` [Example 70, 7-(4-methoxybenzyl)-6-methyl-3-((1R,2R,4S)-2-methyl-7-oxabicyclo[2.2.1]heptan-2-yl)imidazo[1,5-a]pyrazin-8(7H)-one] are 29 nM, 28 nM, 17 nM and -11%.
In the case of `COc1ccc(Cn2c(C)cn3c([C@@H](C)c4ccccc4)ncc3c2=O)cc1` [Example 71, (S)-7-(4-methoxybenzyl)-6-methyl-3-(1-phenylethyl)imidazo[1,5-a]pyrazin-8(7H)-one], the IC50 on PDE1A was 211 nM; at PDE1C, 538 nM; against PDE1B it was 238 nM. Moreover, at PDE9, the inhibition at 10 µM came out at 13%.
For `COc1ccc(Cn2c(C)cn3c([C@H](C)c4ccccc4)ncc3c2=O)cc1` [Example 72, (R)-7-(4-methoxybenzyl)-6-methyl-3-(1-phenylethyl)imidazo[1,5-a]pyrazin-8(7H)-one], the half-maximal inhibitory concentration (IC50) against PDE1A worked out at 90 nM; on PDE1C, 43 nM; against PDE1B it was 12 nM. In addition, the inhibition at 10 µM at PDE9 came to 9%.
On the same counts, the results for `COc1ccc(Cn2c(C)cn3c(C4CCc5ccc(Cl)cc54)ncc3c2=O)cc1` (stereo not drawn) [Example 74, 3-(6-chloro-2,3-dihydro-1H-inden-1-yl)-7-(4-methoxybenzyl)-6-methylimidazo[1,5-a]pyrazin-8(7H)-one] are 5 nM, 3 nM, 2 nM and -19%.
In the case of `COc1ccc(Cn2c(C)cn3c(C4(C)CNC(=O)C4)ncc3c2=O)cc1` (stereo not drawn) [Example 75, 7-(4-methoxybenzyl)-6-methyl-3-(3-methyl-5-oxopyrrolidin-3-yl)imidazo[1,5-a]pyrazin-8(7H)-one], the figures for the IC50 against PDE1A, at PDE1C and on PDE1B were 236 nM, 360 nM and 297 nM, respectively. Further, the inhibition at 10 µM against PDE9 is 8%.
On the same counts, the results for `COCC(C)(C)c1ncc2c(=O)n(Cc3ccc(OC)cc3)c(C)cn12` [Example 76, 3-(1-methoxy-2-methylpropan-2-yl)-7-(4-methoxybenzyl)-6-methylimidazo[1,5-a]pyrazin-8(7H)-one] are 122 nM, 126 nM, 44 nM and -14%.
On the same counts, the results for `Cc1nc(Cn2c(C)cn3c(C4CCOCC4)ncc3c2=O)cs1` [Example 78, 6-methyl-7-((2-methylthiazol-4-yl)methyl)-3-(tetrahydro-2H-pyran-4-yl)imidazo[1,5-a]pyrazin-8(7H)-one] are 1690 nM, 251 nM, 641 nM and 6%.
On the same counts, the results for `Cc1cn2c(C3CCOCC3)ncc2c(=O)n1Cc1ccsc1` [Example 79, 6-methyl-3-(tetrahydro-2H-pyran-4-yl)-7-(thiophen-3-ylmethyl)imidazo[1,5-a]pyrazin-8(7H)-one] are 228 nM, 15 nM, 112 nM and 14%.
Turning to `Cc1cn2c(C3CCOCC3)ncc2c(=O)n1Cc1cscn1` [Example 80, 6-methyl-3-(tetrahydro-2H-pyran-4-yl)-7-(thiazol-4-ylmethyl)imidazo[1,5-a]pyrazin-8(7H)-one], the figures for the inhibition at 10 µM at PDE1A and on PDE9 were 72% and 18%, respectively. The IC50 on PDE1C amounted to 496 nM; against PDE1B, 1310 nM.
In the case of `Cc1noc(C)c1Cn1c(C)cn2c(C3CCOCC3)ncc2c1=O` [Example 81, 7-((3,5-dimethylisoxazol-4-yl)methyl)-6-methyl-3-(tetrahydro-2H-pyran-4-yl)imidazo[1,5-a]pyrazin-8(7H)-one], the inhibition at 10 µM at PDE1A is 27%; at PDE9 it was 36%; at PDE1B (read-out: PDE1B, % inhibition (at 10 μM)), 36%. For the same molecule, half-maximal inhibition at PDE1C (IC50) was put at 2300 nM.
For the molecule `Cc1cc(Cn2c(C)cn3c(C4CCOCC4)ncc3c2=O)no1` [Example 82, 6-methyl-7-((5-methylisoxazol-3-yl)methyl)-3-(tetrahydro-2H-pyran-4-yl)imidazo[1,5-a]pyrazin-8(7H)-one], the inhibition at 10 µM on PDE1A was determined as 67%; on PDE9 it was 7%. Besides, the 50% inhibitory concentration (IC50) on PDE1C came out at 1030 nM; against PDE1B it was 1500 nM.
For the molecule `Cc1cc(Cn2c(C)cn3c(C4CCOCC4)ncc3c2=O)on1` [Example 83, 6-methyl-7-((3-methylisoxazol-5-yl)methyl)-3-(tetrahydro-2H-pyran-4-yl)imidazo[1,5-a]pyrazin-8(7H)-one], the results for the IC50 against PDE1A, against PDE1C and against PDE1B were 4440 nM, 1610 nM and 2290 nM, respectively. Further, the inhibition at 10 µM at PDE9 was -4%.
